Records with an inconclusive call do not appear. The source made the active and inactive calls.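 The calls were made as follows: active = fitted curve of rescue activity rises past 40% within the tested concentration range, in every replicate run; inconclusive = replicate runs disagree, some active and some not; inactive = all replicate runs inactive, including effects in the opposite direction.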
Tests used:
[1] = rescue of simvastatin myotoxicity in C2C12 – cell-based, differentiated C2C12, luminescence, dry powder, dose response (AID 743336); conditions: C2C12 myotubes + simvastatin, ATP luminescence, 48 h
[2] = test system: C2C12 myotubes + simvastatin, ATP luminescence, 48 h; assay: as above

SMILES | rescue activity ([1]; at 19.5 µM (top of the series)) | other results
COCC(=O)N1[C@H](C#N)[C@@H](c2ccc(-c3cccc(F)c3)cc2)[C@@H]1CO |  | rescue activity ([1]; at 21 µM (top of the series)): 7.78% (inactive)
CCCNC(=O)N1[C@H](CO)[C@H](c2ccccc2)[C@@H]1C#N | -1.71% (inactive) | 
N#C[C@@H]1[C@@H](c2ccc(C#Cc3cccnc3)cc2)[C@@H](CO)N1C(=O)C1CCCC1 | -15.7% (inactive) | 
C[C@@H]1CN([C@@H](C)CO)C(=O)c2cccc(NC(=O)Nc3ccc4c(c3)OCO4)c2O[C@H]1CN(C)Cc1ccc(C(=O)Nc2ccccc2N)cc1 |  | AC40 [2]: 16.2 µM
C[C@H]1CN([C@@H](C)CO)C(=O)Cc2cc(NC(=O)CCCCCC(=O)Nc3ccccc3N)ccc2O[C@H]1CN(C)Cc1ccc(C(F)(F)F)cc1 |  | rescue activity ([1]; at 21 µM (top of the series)): 44.5% (inactive)
N#C[C@@H]1[C@@H](c2ccccc2-c2ccc(F)cc2)[C@H](CO)N1C(=O)NC1CCCC1 | 35.5% (inactive) | 
C/C=C/c1ccc([C@H]2[C@@H](CO)N(C(=O)NC3CCCC3)[C@H]2C#N)cc1 | 5.47% (inactive) | 
N#C[C@H]1N[C@@H](CO)[C@@H]1c1ccc(-c2cccc(F)c2)cc1 |  | rescue activity ([1]; at 21 µM (top of the series)): 0.836% (inactive)
C[C@H](CO)N1C[C@H](C)[C@H](CN(C)Cc2ccc(C(=O)Nc3ccccc3N)cc2)Oc2ccc(NC(=O)Nc3ccc(F)cc3)cc2CC1=O | -62.1% (inactive) | 
COc1ccc(S(=O)(=O)Nc2cccc3c2O[C@H](CN(C)C(=O)Nc2ccc(F)cc2)[C@H](C)CN([C@@H](C)CO)C3=O)cc1 |  | AC40 [2]: 14.5 µM
O=C(C[C@H]1CC[C@@H]2[C@H](COC[C@@H](O)CN2Cc2ccc(Oc3ccccc3)cc2)O1)N1CCCCC1 | 22.2% (inactive) | 
Cc1ccc(S(=O)(=O)Nc2ccc3c(c2)CC(=O)N([C@@H](C)CO)C[C@@H](C)[C@H](CN(C)Cc2ccc(-c4ccccc4)cc2)O3)cc1 |  | AC40 [2]: 17.5 µM
C[C@H]1CN([C@@H](C)CO)S(=O)(=O)c2ccc(C#CC3CC3)cc2O[C@H]1CN(C)C(=O)Nc1cc(F)ccc1F | 23.2% (inactive) | 
N#C[C@@H]1[C@@H](c2ccc(-c3ccc(F)cc3)cc2)[C@H](CO)N1C(=O)Cc1ccccc1 | 37.6% (inactive) | 
C[C@@H]1CN([C@H](C)CO)C(=O)Cc2cc(NS(=O)(=O)c3ccc(Cl)cc3)ccc2O[C@H]1CN(C)Cc1ccccc1 |  | AC40 [2]: 15.3 µM
C[C@H](CO)N1C[C@H](C)[C@H](CN(C)Cc2ccc3c(c2)OCO3)Oc2ccc(NC(=O)CCCCCC(=O)Nc3ccccc3N)cc2CC1=O |  | rescue activity ([1]; at 18 µM (top of the series)): 27.2% (inactive)
C[C@@H]1CN([C@H](C)CO)C(=O)Cc2cc(NC(=O)CCCCCC(=O)Nc3ccccc3N)ccc2O[C@@H]1CN(C)Cc1ccc(Oc2ccccc2)cc1 | -50.8% (inactive) | 
C[C@@H]1CN([C@@H](C)CO)C(=O)Cc2cc(NC(=O)CCCCCC(=O)Nc3ccccc3N)ccc2O[C@@H]1CN(C)Cc1ccc(Oc2ccccc2)cc1 |  | rescue activity ([1]; at 21 µM (top of the series)): -22.1% (inactive)
N#C[C@@H]1[C@@H](c2ccc(-c3cccc(F)c3)cc2)[C@H](CO)N1C(=O)c1cccnc1 | 7.76% (inactive) | 
C[C@H]1CN([C@@H](C)CO)S(=O)(=O)c2ccc(C#Cc3ccc(F)cc3)cc2O[C@@H]1CN(C)S(=O)(=O)c1cn(C)cn1 |  | AC40 [2]: 18.9 µM
C[C@H](CO)N1C[C@H](C)[C@@H](CN(C)Cc2ccc(Oc3ccccc3)cc2)Oc2c(NC(=O)Nc3cccc4ccccc34)cccc2C1=O | 26.8% (inactive) | 
C[C@H](CO)N1C[C@H](C)[C@H](CN(C)CC2CCCCC2)Oc2ccc(NC(=O)CCCCCC(=O)Nc3ccccc3N)cc2CC1=O |  | AC40 [2]: 9.21 µM

SMILES | rescue activity ([1]; at 19.5 µM (top of the series)) | other results
N#C[C@H]1[C@H](c2ccc(-c3cccc(F)c3)cc2)[C@@H](CO)N1C(=O)NC1CCCC1 | 33.1% (inactive) | 
C[C@@H]1CN([C@H](C)CO)C(=O)Cc2cc(NC(=O)C3CCCCC3)ccc2O[C@H]1CN(C)Cc1ccc(Cl)c(Cl)c1 | 24.8% (inactive) | 
CCCNC(=O)N1[C@@H](C#N)[C@@H](c2ccc(-c3ccccc3F)cc2)[C@@H]1CO |  | rescue activity ([1]; at 21 µM (top of the series)): -7.41% (inactive)
Cc1noc(C)c1S(=O)(=O)Nc1ccc2c(c1)CC(=O)N([C@H](C)CO)C[C@@H](C)[C@@H](CN(C)Cc1ccc(-c3ccccc3)cc1)O2 |  | AC40 [2]: 13.9 µM
C[C@H](CO)N1C[C@H](C)[C@H](CN(C)Cc2ccc(Oc3ccccc3)cc2)Oc2ccc(NC(=O)CCCCCC(=O)Nc3ccccc3N)cc2CC1=O |  | rescue activity ([1]; at 21 µM (top of the series)): -22.7% (inactive)
CC(C)=CCC/C(C)=C/CC/C(C)=C/CC/C(C)=C/CO |  | AC40 [2]: 4.38 µM
N#C[C@H]1[C@H](c2ccc(C#CCC3CCCC3)cc2)[C@@H](CO)N1C(=O)CN1CCOCC1 | 28.6% (inactive) | 
COc1ccc(C#Cc2cnc3c(c2)C(=O)N([C@H](C)CO)C[C@H](C)[C@H](CN(C)Cc2ccccc2)O3)cc1OC | 32.2% (inactive) | 
COc1ccc(-c2ccc([C@@H]3[C@@H](C#N)N(C(=O)NC4CCCC4)[C@H]3CO)cc2)cc1 | 12.8% (inactive) | 
Cc1ccc(S(=O)(=O)N(C)C[C@@H]2Oc3ccc(NS(=O)(=O)c4ccc(Cl)cc4)cc3C(=O)N([C@H](C)CO)C[C@@H]2C)cc1 | 27.2% (inactive) | 
CC(C)CC#Cc1cnc2c(c1)C(=O)N([C@H](C)CO)C[C@H](C)[C@@H](CN(C)C(=O)Cc1ccccc1)O2 |  | rescue activity ([1]; at 21 µM (top of the series)): -0.381% (inactive)
C[C@H]1CN([C@@H](C)CO)C(=O)Cc2cc(NC(=O)CCCCCC(=O)Nc3ccccc3N)ccc2O[C@H]1CN(C)Cc1ccccc1 |  | AC40 [2]: 13.8 µM
CCCC#Cc1ccc([C@H]2[C@@H](C#N)N(S(=O)(=O)c3cccc(F)c3)[C@H]2CO)cc1 | 3.48% (inactive) | 
CCS(=O)(=O)N1[C@H](C#N)[C@@H](c2ccc(-c3cccc(F)c3)cc2)[C@@H]1CO |  | rescue activity ([1]; at 21 µM (top of the series)): 10.1% (inactive)
CCCNC(=O)N1[C@H](C#N)[C@@H](c2ccc(C3=CCCCC3)cc2)[C@@H]1CO | 37.4% (inactive) | 
C[C@@H]1CN([C@@H](C)CO)C(=O)c2cc(NS(=O)(=O)c3ccc(Cl)cc3)ccc2O[C@H]1CN(C)C(=O)Nc1cccc2ccccc12 |  | AC40 [2]: 14.6 µM
C[C@@H]1CN([C@H](C)CO)C(=O)c2cccc(NC(=O)Nc3ccc4c(c3)OCO4)c2O[C@H]1CN(C)Cc1ccc(C(=O)Nc2ccccc2N)cc1 |  | AC40 [2]: 14.7 µM
N#C[C@H]1[C@@H](c2ccc(-c3cccc(F)c3)cc2)[C@H](CO)N1C(=O)NC1CCCC1 | -7.45% (inactive) | 
N#C[C@H]1[C@H](c2ccc(-c3cccc(F)c3)cc2)[C@H](CO)N1C(=O)NC1CCCC1 | 29.9% (inactive) | 
N#C[C@@H]1[C@@H](c2ccc(C#CC3CCCC3)cc2)[C@H](CO)N1S(=O)(=O)c1ccccc1 |  | AC40 [2]: 20 µM
CN(C)C(=O)c1cccc(-c2ccc([C@@H]3[C@@H](C#N)N(C(=O)C4CCCC4)[C@@H]3CO)cc2)c1 | 11.9% (inactive) | 
CN1C(=O)c2cc(NC(=O)c3ccc(F)c(F)c3)ccc2OC[C@H]2O[C@@H](CC(=O)Nc3ccc4c(c3)COC4)CC[C@@H]21 | 29.3% (inactive) | 

SMILES | rescue activity ([1]; at 19.5 µM (top of the series)) | other results
N#C[C@@H]1[C@@H](c2ccccc2-c2cccc(F)c2)[C@H](CO)N1C(=O)NC1CCCC1 | 35.9% (inactive) | 
C[C@H]1CN([C@@H](C)CO)C(=O)Cc2cc(NC(=O)Nc3cccc4ccccc34)ccc2O[C@H]1CN(C)Cc1ccc(C(=O)Nc2ccccc2N)cc1 |  | AC40 [2]: 9.64 µM
C[C@@H]1CN([C@H](C)CO)C(=O)c2cccc(NC(=O)c3nc4ccccc4s3)c2O[C@@H]1CN(C)Cc1ccc(C(=O)Nc2ccccc2N)cc1 | -3.35% (inactive) | 
C[C@@H]1CN([C@@H](C)CO)C(=O)c2cc(NC(=O)Cc3cn(C)c4ccccc34)ccc2O[C@H]1CN(C)Cc1ccc(C(=O)Nc2ccccc2N)cc1 | 29.3% (inactive) | 
C[C@@H]1CN([C@H](C)CO)C(=O)c2cc(NC(=O)Nc3cccc4ccccc34)ccc2O[C@@H]1CN(C)Cc1ccc(C(=O)Nc2ccccc2N)cc1 |  | AC40 [2]: 15.9 µM
N#C[C@@H]1[C@@H](c2ccc(C3=CCCCC3)cc2)[C@H](CO)N1C(=O)NC1CCCC1 | 33.7% (inactive) | 
N#C[C@@H]1[C@H](c2ccc(-c3cccc(F)c3)cc2)[C@H](CO)N1C(=O)NC1CCCC1 | -9.1% (inactive) | 
C[C@H]1CN([C@@H](C)CO)C(=O)Cc2cc(NC(=O)CCCCCC(=O)Nc3ccccc3N)ccc2O[C@@H]1CN(C)Cc1ccc(Oc2ccccc2)cc1 |  | rescue activity ([1]; at 21 µM (top of the series)): 20% (inactive)
C[C@H](CO)N1C[C@H](C)[C@H](CN(C)Cc2ccc(C(=O)Nc3ccccc3N)cc2)Oc2ccc(N(C)C)cc2C1=O | 6.09% (inactive) | 
N#C[C@H]1[C@@H](c2ccc(-c3cccc(F)c3)cc2)[C@@H](CO)N1C(=O)NC1CCCC1 | 5.12% (inactive) | 
N#C[C@@H]1[C@H](c2ccc(-c3cccc(F)c3)cc2)[C@@H](CO)N1C(=O)NC1CCCC1 | -10.7% (inactive) | 
COc1ccc(S(=O)(=O)N(C)C[C@H]2Oc3c(NC(=O)Nc4ccccc4)cccc3C(=O)N([C@H](C)CO)C[C@H]2C)cc1 | 29.2% (inactive) | 
C[C@H]1CN([C@@H](C)CO)C(=O)c2cc(NC(=O)Nc3cccc4ccccc34)ccc2O[C@H]1CN(C)Cc1ccc(C(=O)Nc2ccccc2N)cc1 |  | AC40 [2]: 13.5 µM
O=C(C[C@H]1CC[C@@H]2[C@H](COC[C@H](O)CN2CCC(F)(F)F)O1)NCc1ccc(Oc2ccccc2)cc1 | 23.4% (inactive) | 
C[C@H]1CN([C@@H](C)CO)C(=O)c2cc(C#Cc3ccncc3)cnc2O[C@@H]1CN(C)CC1CCCC1 | 20.2% (inactive) | 
N#C[C@@H]1[C@@H](c2ccc(-c3cccc(F)c3)cc2)[C@@H](CO)N1C(=O)NC1CCCC1 | 9.41% (inactive) | 
N#C[C@H]1[C@H](c2ccc(C#Cc3ccc(F)cc3)cc2)[C@H](CO)N1c1nc(-c2ccccc2)cs1 | 38.1% (inactive) | 
C[C@H]1CN([C@@H](C)CO)C(=O)Cc2cc(NS(=O)(=O)c3ccc(Cl)cc3)ccc2O[C@@H]1CN(C)CC1CCCCC1 |  | rescue activity ([1]; at 21 µM (top of the series)): 3.09% (inactive)
C[C@@H]1CN([C@H](C)CO)C(=O)Cc2cc(NS(=O)(=O)c3cn(C)cn3)ccc2O[C@@H]1CN(C)Cc1ccc(Cl)c(Cl)c1 | 34.3% (inactive) | 
C[C@@H]1CN([C@H](C)CO)C(=O)Cc2cc(NC(=O)CCCCCC(=O)Nc3ccccc3N)ccc2O[C@H]1CN(C)Cc1ccc(Oc2ccccc2)cc1 | 30.8% (inactive) | 
C[C@H]1CN([C@@H](C)CO)C(=O)c2cc(N(C)C)ccc2O[C@@H]1CN(C)Cc1ccc(C(=O)Nc2ccccc2N)cc1 | 28.1% (inactive) | 

From PubChem BioAssay AID743336 (Broad Institute, 2014)
